Measurements published in US20250263671A1, “NEURON-INNERVATED ASSEMBLOIDS AND METHODS OF MAKING THE SAME” (University of Georgia Research Foundation, Inc., priority 2024, published 2025).
Entries after “also recorded” stand apart in the source; their conditions may differ.

Legend:
hPSC-derived CMs = settings: CMs alone, without physical connection with symNs; cited from earlier work
hypoxic hSCAs = assay: low oxygen (hypoxia-induced) cardiac infarction model on wk5 hSCAs; assay type: cell-based, human
Experimental: (§1) 0.5×10^6 cells were collected using Trizol (Invitrogen, 15596026) for each sample. Reverse transcription with 1 μg total RNA was performed using iScript™ Reverse Transcription Supermix (Bio-Rad, 170884). SYBR green (Bio-Rad) RT-qPCR was ran using CFX96 Touch Deep Well Real-Time PCR Detection System (Bio-Rad), and analyzed by CFX Maestro.
Wk5 hSCAs were fed with hSCA medium and placed into the hypoxia chamber (incubator subchamber system with O2/CO2 setpoint control, BioSpherix) with 10% O2, control group was maintained in regular culture condition (21% O2). hSCAs in both conditions were fed with fresh hSCA medium every 3 days for 10 days.
To test the effect of sympathetic input to cardiac function in the assembloids in a diseased state, a strategy was developed to model myocardial infarction. A model of myocardial infarction in cardiac organoids has been described^55. In this model, a moderate hypoxic environment (10% O2) was applied, which prevented massive and sudden cell death in 3D cardiac microtissues and allowed the observation of the progression of infarction. In addition to hypoxia, exogenous NE was added to the cardiac organoids to mimic the effects of increased sympathetic tone to the heart. […] The hypoxic stress stimulated overproduction of endogenous NE from symNs in hSCAs, measured via the NS510 probe and ELISA (FIG. 5C). […]

symNs within the hSCAs = settings: nicotine 1 μM, wk5 hSCAs
Experimental: To assess symN activity, calcium (Ca^2+) imaging was performed using Fluo-4 Ca^2+ labeling. To be able to distinguish Ca^2+ fluxes in symNs and not in cardiac tissues, symNblast were differentiated using the EF1-RFP reporter hPSC line and mixed with unlabeled cardiac progenitors (FIG. 3F).

hPSC-derived symNs = settings: nicotine treatment; cited from earlier work
hSCAs [1] = assay: labetalol treatment during hSCA development: assembloid size and cell count; assay type: cell-based, human
Experimental: (§2) The effect of SymN activation on heart development has been reported, potentially through NE and adrenergic signaling^22,23. […] To test if the symNs in hSCAs play a regulatory role on cardiac development and maturation, the assembloids were treated with α- and β-adrenergic receptor antagonist labetalol (LAB, 1 μM) to fully block the NE signaling during the growth of the hSCAs (FIG. 4B). The drug was given from wk3, the stage when the assembloid growth almost reaches its plateau (FIG. 1E). Given that symN activity may promote cellular hyperplastic to hypertrophic transition of CM^22,23, the overall size of hSCAs was compared on wk5 after LAB treatment.

hSCAs [2] = assay: RT-qPCR of wk5 hSCAs for cardiac maturity markers after labetalol treatment; assay type: cell-based, human; settings: LAB 1 μM given from wk3, wk5 hSCAs, vs DMSO
Experimental: as §1, §2

neonatal mouse hearts = settings: symN lesions in neonatal mouse hearts; cited from earlier work

In the case of `CC(C)NCC(O)c1ccc(O)c(O)c1` (stereo not drawn) [isoproterenol], the “improvement of CM maturity (mature cardiac gene expression, functional cardiac activity)” value (hPSC-derived CMs) is given as “not sufficient to induce such maturity improvement”.

With `CC(C)NCC(O)COc1cccc2ccccc12` (stereo not drawn) [propranolol] the “impaired expression of Ca2+ handling genes, RT-qPCR” value (hypoxic hSCAs; propranolol 1 μM in addition to low oxygen (10% O2, 10 days)) was “rescued” and the “cardiac fibrosis caused by hypoxic stress” value (hypoxic hSCAs; propranolol along with the hypoxic stress) was “rescued”.

In the case of `CN1CCCC1c1cccnc1` (stereo not drawn) [nicotine], the hSCA beating efficiency (symNs within the hSCAs) is listed as “increased hSCA beating efficiency” and the “spontaneous firing of action potentials” value (hPSC-derived symNs) is listed as “upregulated”.

In the case of `CC(CCc1ccccc1)NCC(O)c1ccc(O)c(C(N)=O)c1` (stereo not drawn) [LAB, labetalol], the “overall size of hSCAs” value (hSCAs [1]; LAB 1 μM given from wk3, compared on wk5, vs DMSO) is reported as “Differences in assembloid size were not observed; also recorded: not altered”, the hSCA cell number (hSCAs [1]; LAB-treated organoids compared to control, wk5) is reported as “not altered” and the “expression of markers of CM maturity (CX43, α-ACTININ, and CD36), RT-qPCR” value (hSCAs [2]) is reported as “decreased expressions”.

In the case of `NCCc1cc(O)c(O)cc1O` [6-OHDA, 6-hydroxydopamine], the “proliferation of CMs” value (neonatal mouse hearts) is listed as “increased”.
